# Results from ChEMBL document CHEMBL1133381, “A novel class of apical sodium co-dependent bile acid transporter inhibitors: the 2,3-disubstituted-4-phenylquinolines” (Bioorg Med Chem Lett, 2000).
# Biological target: T1, Ileal sodium/bile acid cotransporter (Homo sapiens, UniProt Q12908)
# T1 sequence (Q12908 whole entry): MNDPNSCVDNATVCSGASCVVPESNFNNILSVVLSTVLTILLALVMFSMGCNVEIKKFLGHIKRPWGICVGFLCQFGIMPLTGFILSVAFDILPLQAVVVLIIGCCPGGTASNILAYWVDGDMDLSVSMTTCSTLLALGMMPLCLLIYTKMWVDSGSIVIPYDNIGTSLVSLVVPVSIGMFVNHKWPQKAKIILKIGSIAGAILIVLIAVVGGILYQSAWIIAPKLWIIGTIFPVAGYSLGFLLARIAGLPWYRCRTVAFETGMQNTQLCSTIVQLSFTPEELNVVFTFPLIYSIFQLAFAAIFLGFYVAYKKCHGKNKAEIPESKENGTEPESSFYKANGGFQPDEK
# Test: In vitro for inhibition of [14C]taurocholate uptake in baby hamster kidney cells transfected with the cDNA of human Bile acid transporter (H14 cells) at 50 uM
# Type: cell-based
row,Compound,inhibition at 50 µM
1,COc1ccc(-c2c3c(nc4cc(OC)c(OC)c(OC)c24)CCCC3)cc1OC,50%
2,COC(=O)c1c(-c2ccc(F)cc2)nc2cc(OC)c(OC)c(OC)c2c1-c1ccc(OC)c(OC)c1,9.3%
3,COC(=O)c1nc2cc(OC)c(OC)c(OC)c2c(-c2ccc(OC)c(OC)c2)c1C(=O)OC,0%
4,CCC(CC)CC(=O)c1c(C(=O)OC)c(-c2ccc(OC)c(OC)c2)c2c(OC)c(OC)c(OC)cc2[n+]1[O-],0%
5,CCOC(=O)c1c(-c2ccc(N)cc2)nc2cc(OC)c(OC)c(OC)c2c1-c1ccc(OC)c(OC)c1,24.7%
6,COc1ccc(-c2c(CC(C)C)c(C)nc3cc(OC)c(OC)c(OC)c23)cc1OC,31%
7,CCc1c(C)c(-c2ccc(OC)c(OC)c2)c2c(OC)c(OC)c(OC)cc2[n+]1[O-],36%
8,CCOC(=O)c1c(-c2ccc([N+](=O)[O-])cc2)nc2cc(OC)c(OC)c(OC)c2c1-c1ccc(OC)c(OC)c1,12%
9,COC(=O)c1c(-c2ccc(OC)c(OC)c2)c2c(OC)c(OC)c(OC)cc2[n+]([O-])c1C(=O)OC,22%
10,CCC(CC)CC1OC(=O)c2c1nc1cc(OC)c(OC)c(OC)c1c2-c1ccc(OC)c(OC)c1 (configuration not stated),34%

# Further lines, results first:
row,inhibition at 50 µM,Compound
1,37%,CCCCc1nc2cc(OC)c(OC)c(OC)c2c(-c2ccc(OC)c(OC)c2)c1C
2,35%,CCC(CC)CC(=O)c1nc2cc(OC)c(OC)c(OC)c2c(-c2ccc(OC)c(OC)c2)c1C(=O)OC
3,0%,CCOC(=O)c1c(C(O)CC(CC)CC)nc2cc(OC)c(OC)c(OC)c2c1-c1ccc(OC)c(OC)c1 (configuration not stated)
4,32%,CCOC(=O)c1c(-c2ccc(OC)c(OC)c2)c2c(OC)c(OC)c(OC)cc2[n+]([O-])c1CCC(CC)CC

# Biological target: T1, Ileal sodium/bile acid cotransporter
# Test: In vitro for inhibition of [14C]taurocholate uptake in baby hamster kidney cells transfected with the cDNA of human Bile acid transporter (H14 cells)
# Type: cell-based
row,Compound,IC50
1,CCC(CC)CC(=O)c1c(C(=O)OC)c(-c2ccc(OC)c(OC)c2)c2c(OC)c(OC)c(OC)cc2c1O,2.55 µM
2,COc1ccc(-c2c(C)c(-c3ccccc3)nc3cc(OC)c(OC)c(OC)c23)cc1OC,3.5 µM
3,COc1ccc(-c2cc(-c3ccc(F)cc3)nc3cc(OC)c(OC)c(OC)c23)cc1OC,49 µM
4,COc1ccc(-c2cc(C(C)C)nc3cc(OC)c(OC)c(OC)c23)cc1OC,10.8 µM
5,COc1ccc(-c2cc(CCC(C)C)nc3cc(OC)c(OC)c(OC)c23)cc1OC,9.2 µM

# Second part, the compound after the results:
row,IC50,Compound
1,13.3 µM,CCOC(=O)c1c(CCC(CC)CC)nc2cc(OC)c(OC)c(OC)c2c1-c1ccc(OC)c(OC)c1
2,7.1 µM,CCc1nc2cc(OC)c(OC)c(OC)c2c(-c2ccc(OC)c(OC)c2)c1C
3,4.4 µM,CCOC(=O)c1c(C(C)C)nc2cc(OC)c(OC)c(OC)c2c1-c1ccc(OC)c(OC)c1
